# pIC50: −log10 of the molar value.
# Test system: Aβ40 in conditioned medium of cells stably expressing Amyloid Precursor Protein (APP)
# Assay: BACE cell-based assay: Aβ40 in conditioned medium by sandwich ELISA
# Conditions: cell based assay data, Table 4; unit inferred; read-out: Cell Assay
# Outline: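 Aβ40 in conditioned medium was read by time-resolved fluorescence sandwich ELISA (capture pAb40, detection biotinylated 6E10, 4° C incubations). Compounds were applied for 24 h to cells stably expressing APP, at 10 doses from 100 or 10 μM top, 0.1% DMSO. IC50 derived from percent of control.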
row,SMILES,pIC50
1,"CC(=O)N[C@@H](Cc1ccc(F)c(Cl)c1)[C@H](O)CN[C@H]1C[C@]2(C[C@H](C)C2)Oc2ncc(CC(C)(C)C)cc21 [compound 713, N-((1S,2R)-1-((3-chloro-4-fluorophenyl)methyl)-3-(((1s,3R,4′S)-6′-(2,2-dimethylpropyl)-3-methyl-3′,4′-dihydrospiro[cyclobutane-1,2′-pyrano[2,3-b]pyridin]-4′-yl)amino)-2-hydroxypropyl)acetamide]",7.81
2,"CC(=O)N[C@@H](Cc1ccc(Cl)cc1)[C@H](O)CN[C@H]1C[C@]2(C[C@H](C)C2)Oc2ncc(CC(C)(C)C)cc21 [compound 714, N-((1S,2R)-1-((4-chlorophenyl)methyl)-3-(((1s,3R,4′S)-6′-(2,2-dimethylpropyl)-3-methyl-3′,4′-dihydrospiro[cyclobutane-1,2′-pyrano[2,3-b]pyridin]-4′-yl)amino)-2-hydroxypropyl)acetamide]",7.57
3,C=CCC[C@H](NC(C)=O)[C@H](O)CN[C@H]1CC2(CCC2)Oc2ncc(CC(C)(C)C)cc21 [compound 715],7.39
4,CC(=O)N[C@@H](Cc1ccc(Cl)c(C(F)(F)F)c1)[C@H](O)CN[C@H]1CC2(CCC2)Oc2ncc(CC(C)(C)C)cc21 [compound 716],7.63
5,"C=CCC[C@H](NC(C)=O)[C@H](O)CN[C@H]1C[C@]2(C[C@H](C)C2)Oc2ncc(CC(C)(C)C)cc21 [compound 717, N-((1S)-1-((1R)-2-(((1s,3R,4′S)-6′-(2,2-dimethylpropyl)-3-methyl-3′,4′-dihydrospiro[cyclobutane-1,2′-pyrano[2,3-b]pyridin]-4′-yl)amino)-1-hydroxyethyl)-4-penten-1-yl)acetamide]",7.28
6,CC(=O)N[C@@H](Cc1cccc(C(F)(F)F)c1)[C@H](O)CN[C@H]1CC2(CCC2)Oc2ncc(CC(C)(C)C)cc21 [compound 718],8.40
7,CC(=O)N[C@@H](Cc1cccc(C(F)(F)F)c1)[C@H](O)CN[C@H]1CC2(CCC2)Oc2ncc(CC(C)C)cc21 [compound 719],8.03
8,CC(=O)N[C@@H](Cc1ccc(Cl)c(F)c1)[C@H](O)CN[C@H]1CC2(CCC2)Oc2ncc(CC(C)(C)C)cc21 [compound 720],8.07
9,COc1cc(C[C@H](NC(C)=O)[C@H](O)CN[C@H]2CC3(CCC3)Oc3ncc(CC(C)(C)C)cc32)ccc1Cl [compound 721],7.67
10,"CC(=O)N[C@@H](CC1CC1)[C@H](O)CN[C@H]1CC2(CCC2)Oc2ncc(CC(C)(C)C)cc21 [compound 722, N-((1S,2R)-1-(cyclopropylmethyl)-3-(((4′S)-6′-(2,2-dimethylpropyl)-3′,4′-dihydrospiro[cyclobutane-1,2′-pyrano[2,3-b]pyridin]-4′-yl)amino)-2-hydroxypropyl)acetamide]",7.33
11,"CC(=O)N[C@@H](CC1CC1C)[C@H](O)CN[C@H]1CC2(CCC2)Oc2ncc(CC(C)(C)C)cc21 (stereo partly drawn) [compound 723, N-((1S,2R)-3-(((4′S)-6′-(2,2-dimethylpropyl)-3′,4′-dihydrospiro[cyclobutane-1,2′-pyrano[2,3-b]pyridin]-4′-yl)amino)-2-hydroxy-1-((2-methylcyclopropyl)methyl)propyl)acetamide]",6.71
12,"CC(=O)N[C@@H](CC1CC1)[C@H](O)CN[C@H]1CC2(CCC2)Oc2ncc(CC(C)(C)CC(F)F)cc21 [compound 724, N-((1S,2R)-1-(cyclopropylmethyl)-3-(((4′S)-6′-(4,4-difluoro-2,2-dimethylbutyl)-3′,4′-dihydrospiro[cyclobutane-1,2′-pyrano[2,3-b]pyridin]-4′-yl)amino)-2-hydroxypropyl)acetamide]",6.74
13,"CC(=O)N[C@@H](CC1CC1)[C@H](O)CN[C@H]1C[C@]2(C[C@H](C)C2)Oc2ncc(CC(C)(C)C)cc21 [compound 725, N-((1S,2R)-1-(cyclopropylmethyl)-3-(((1s,3R,4′S)-6′-(2,2-dimethylpropyl)-3-methyl-3′,4′-dihydrospiro[cyclobutane-1,2′-pyrano[2,3-b]pyridin]-4′-yl)amino)-2-hydroxypropyl)acetamide]",7.16
14,"CC(=O)N[C@@H](Cc1ccnc(OC(F)F)c1)[C@H](O)CN[C@H]1CC2(CCC2)Oc2ncc(CC(C)(C)C)cc21 [compound 726, N-((1S,2R)-1-((2-((difluoromethyl)oxy)-4-pyridinyl)methyl)-3-(((4′S)-6′-(2,2-dimethylpropyl)-3′,4′-dihydrospiro[cyclobutane-1,2′-pyrano[2,3-b]pyridin]-4′-yl)amino)-2-hydroxypropyl)acetamide]",8.01
15,CN(C)CC(=O)N[C@@H](Cc1cccc(C#N)c1)[C@H](O)CN[C@H]1CC2(CCC2)Oc2ccc(Br)cc21 [compound 727],6.52
16,COC(=O)c1ccc2c(c1)[C@@H](NC[C@@H](O)[C@H](Cc1cccc(C#N)c1)NC(=O)CN(C)C)CC1(CCC1)O2 [compound 728],7.36
17,COC(=O)c1ccc2c(c1)[C@@H](NC[C@@H](O)[C@H](Cc1cccc(C#N)c1)NC(C)=O)CC1(CCC1)O2 [compound 729],5.84
18,COCC(=O)N[C@@H](Cc1cccc(C#N)c1)[C@H](O)CN[C@H]1CC2(CCC2)Oc2ccc(C(=O)OC)cc21 [compound 730],5.99
19,CCc1ccc2c(c1)[C@@H](NC[C@@H](O)[C@H](COC)NC(C)=O)CC1(CCC1)O2 [compound 731],5.60
20,CCCOC[C@H](NC(C)=O)[C@H](O)CN[C@H]1CC2(CCC2)Oc2ccc(CC)cc21 [compound 732],5.49

row,SMILES,pIC50
1,CCc1ccc2c(c1)[C@@H](NC[C@@H](O)[C@H](COCc1ccccc1)NC(C)=O)CC1(CCC1)O2 [compound 733],≤ 5.00
2,CCc1ccc2c(c1)[C@@H](NC[C@@H](O)[C@H](Cn1cccn1)NC(C)=O)CC1(CCC1)O2 [compound 734],5.27
3,CC(=O)N[C@@H](Cn1cccn1)[C@H](O)CN[C@H]1CC2(CCC2)Oc2ncc(CC(C)(C)C)cc21 [compound 735],≤ 5.00
4,"C=CC[C@H](NC(C)=O)[C@@H](O)CN[C@H]1CC2(CCC2)Oc2ncc(CC(C)(C)C)cc21 [compound 737, N-((1S)-1-((1S)-2-(((4′S)-6′-(2,2-dimethylpropyl)-3′,4′-dihydrospiro[cyclobutane-1,2′-pyrano[2,3-b]pyridin]-4′-yl)amino)-1-hydroxyethyl)-3-buten-1-yl)acetamide]",≤ 5.00
5,"CC(=O)N[C@@H](CCC(F)(F)F)[C@H](O)CN[C@H]1CC2(CCC2)Oc2ncc(CC(C)(C)C)cc21 [compound 738, N-((1S)-1-((1R)-2-(((4′S)-6′-(2,2-dimethylpropyl)-3′,4′-dihydrospiro[cyclobutane-1,2′-pyrano[2,3-b]pyridin]-4′-yl)amino)-1-hydroxyethyl)-4,4,4-trifluorobutyl)acetamide]",5.85
6,"C/C=C/C[C@H](NC(C)=O)[C@H](O)CN[C@H]1CC2(CCC2)Oc2ncc(CC(C)(C)C)cc21 [compound 739, N-((1S,3E)-1-((1R)-2-(((4′S)-6′-(2,2-dimethylpropyl)-3′,4′-dihydrospiro[cyclobutane-1,2′-pyrano[2,3-b]pyridin]-4′-yl)amino)-1-hydroxyethyl)-3-penten-1-yl)acetamide]",6.53
7,"C=C[C@H](NC(C)=O)[C@H](O)CN[C@H]1CC2(CCC2)Oc2ncc(CC(C)(C)C)cc21 [compound 740, N-((1S)-1-((1R)-2-(((4′S)-6′-(2,2-dimethylpropyl)-3′,4′-dihydrospiro[cyclobutane-1,2′-pyrano[2,3-b]pyridin]-4′-yl)amino)-1-hydroxyethyl)-2-propen-1-yl)acetamide]",5.48
8,"C=CC[C@H](NC(C)=O)[C@H](O)CN[C@H]1CC2(CCC2)Oc2ncc(CC(C)(C)F)cc21 [compound 741, N-((1S)-1-((1R)-2-(((4′S)-6′-(2-fluoro-2-methylpropyl)-3′,4′-dihydrospiro[cyclobutane-1,2′-pyrano[2,3-b]pyridin]-4′-yl)amino)-1-hydroxyethyl)-3-buten-1-yl)acetamide]",6.71
9,CCC#CC[C@H](NC(C)=O)[C@H](O)CN[C@H]1CC2(CCC2)Oc2ncc(CC(C)(C)C)cc21 [compound 742],6.54
10,"Cc1nccn1CC(=O)N[C@@H](Cc1ccccc1)[C@H](O)CN[C@H]1CC2(CCC2)Oc2ccc(CC(C)(C)C)cc21 [compound 744, N-((1S,2R)-3-(((4S)-6-(2,2-dimethylpropyl)-3,4-dihydrospiro[chromene-2,1′-cyclobutan]-4-yl)amino)-2-hydroxy-1-(phenylmethyl)propyl)-2-(1H-2-methyl-imidazol-1-yl) acetamide]",8.24
11,CC(=O)N[C@@H](Cc1cc(F)cc(F)c1)[C@H](O)CN[C@H]1CC2(CCC2)Oc2ncc(Br)cc21 [compound 745],7.48
12,CC(=O)N[C@@H](Cc1cc(F)cc(F)c1)[C@H](O)CN[C@H]1CC2(CCC2)Oc2ncc(-n3cccn3)cc21 [compound 746],6.67
13,CC(=O)N[C@@H](Cc1cc(F)cc(F)c1)[C@H](O)CN[C@H]1CC2(CCC2)Oc2ncc(-n3ccnc3)cc21 [compound 747],6.30
14,CC(=O)N[C@@H](Cc1cc(F)cc(F)c1)[C@H](O)CN[C@H]1CC2(CCC2)Oc2ncc(-c3nccs3)cc21 [compound 748],5.98
15,CC(=O)N[C@@H](Cc1ccccc1)[C@H](O)CN[C@H]1CC2(CCC2)Oc2cnc(CC(C)(C)C)cc21 [compound 749],7.86
16,CC(=O)N[C@@H](Cc1cc(F)cc(Cl)c1)[C@H](O)CN[C@H]1CC2(CCC2)Oc2cnc(CC(C)(C)C)cc21 [compound 750],7.69
17,CC(=O)N[C@@H](Cc1cc(F)cc(Cl)c1)[C@H](O)CN[C@H]1CC2(CCC2)Oc2cnc(CC(C)(C)O)cc21 [compound 751],7.41
18,CC(=O)N[C@@H](Cc1cc(F)cc(Cl)c1)[C@H](O)CN[C@H]1CC2(CCC2)Oc2c1cc(CC(C)(C)C)nc2Cl [compound 752],7.38
19,CC(=O)N[C@@H](Cc1ccccc1)[C@H](O)CN[C@H]1CC2(CCC2)Oc2c1cc(CC(C)(C)C)nc2Cl [compound 753],7.86
20,CC(=O)N[C@@H](Cc1ccccc1)[C@H](O)CN[C@H]1CC2(CCC2)Oc2c1cc(CC(C)(C)C)nc2N1CCOCC1 [compound 754],7.28

# Reference: US7973047B2, “Beta-Secretase modulators and methods of use” (Amgen Inc., priority 2010, dated 2011)
